{"source": "patent US20210263120A1", "about": "“METHOD OF PERSONALIZED TREATMENT FOR CARDIOMYOPATHY AND HEART FAILURE AND ASSOCIATED DISEASES BY MEASURING EDEMA AND CACHEXIA/SARCOPENIA” (priority 2018, published 2021)", "key": {"mouse renin": {"biological_target": "T1, mouse renin (Mus musculus, UniProt P06281)", "T1 construct": "Renin enzymatic activity from EDTA-aprotinin supplemented mouse plasma samples; from tissue", "T1 sequence (P06281 72-402)": "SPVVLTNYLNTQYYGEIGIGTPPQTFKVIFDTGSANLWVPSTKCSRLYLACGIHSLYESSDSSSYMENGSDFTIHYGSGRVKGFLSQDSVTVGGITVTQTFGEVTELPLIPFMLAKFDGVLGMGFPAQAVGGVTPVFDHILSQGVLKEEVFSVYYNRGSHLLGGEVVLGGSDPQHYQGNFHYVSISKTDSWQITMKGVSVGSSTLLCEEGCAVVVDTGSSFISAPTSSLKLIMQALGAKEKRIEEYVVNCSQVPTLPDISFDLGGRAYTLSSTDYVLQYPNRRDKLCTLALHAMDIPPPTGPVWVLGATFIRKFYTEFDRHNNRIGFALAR", "experiment": "Plasma renin activity assay (FRET) in plasma of treated DCM mice", "assay_type": "in vivo", "conditions": "DCM mice at 90 days, vs. untreated DCM control", "experimental": "Plasma samples were aliquoted and stored at −80° C. until analysis."}, "plasma aldosterone": {"system": "plasma aldosterone", "experiment": "Enzyme immunoassay of plasma aldosterone in treated DCM mice", "assay_type": "in vivo, mouse", "conditions": "DCM mice at 90 days, vs. untreated DCM control", "excerpt": "(§1) Mice: Dilated cardiomyopathy (DCM) is a major cause of HF, which is associated with pathological dilation of the heart ventricles and declines in heart contractile or systolic function. A well-established, translational mouse model of DCM with reduced ejection fraction (rEF) fulfills the criteria of the American Heart Association Scientific Statement for Animal Models of Heart Failure was utilized in the examples below. The mice used for this study were randomly assigned female littermates with or without (DCM on a C57BL/6 background. DCM mice express a transgene dominant-negative CREB transcription factor specific to cardiomyocytes and consistently develop the progressive stages (A-D) of HF similar to those described for humans. In female mice with DCM renal function remains within a normal range up to the terminal HF stage, as measured by plasma BUN and creatinine. DCM+vehicle (n=28) and DCM+DRI (n=29) were compared to each other. A group of congenic WT mice (n=20) was used for reference. In sub-groups of 90-day old mice (n=8/group), terminal blood was collected via cardiocentesis with ethylenediaminetetraacetic acid (EDTA)-aprotinin syringes to prevent proteolysis of targeted proteins and dissected organs were weighed. […] All analysis and health/death reports were recorded by investigators and animal facility technicians who were blinded to the mouse genotype. […]"}, "[1]": {"system": "female mice with dilated cardiomyopathy (DCM)", "experiment": "Kaplan-Meier survival of female mice with DCM", "assay_type": "in vivo, mouse", "excerpt": "(§2) Mice: Dilated cardiomyopathy (DCM) is a major cause of HF, which is associated with pathological dilation of the heart ventricles and declines in heart contractile or systolic function. A well-established, translational mouse model of DCM with reduced ejection fraction (rEF) fulfills the criteria of the American Heart Association Scientific Statement for Animal Models of Heart Failure was utilized in the examples below. The mice used for this study were randomly assigned female littermates with or without (DCM on a C57BL/6 background. DCM mice express a transgene dominant-negative CREB transcription factor specific to cardiomyocytes and consistently develop the progressive stages (A-D) of HF similar to those described for humans. In female mice with DCM renal function remains within a normal range up to the terminal HF stage, as measured by plasma BUN and creatinine. DCM+vehicle (n=28) and DCM+DRI (n=29) were compared to each other. A group of congenic WT mice (n=20) was used for reference. In sub-groups of 90-day old mice (n=8/group), terminal blood was collected via cardiocentesis with ethylenediaminetetraacetic acid (EDTA)-aprotinin syringes to prevent proteolysis of targeted proteins and dissected organs were weighed. The blood samples were centrifuged at 3000 rpm for 20 min at 4° C. Plasma samples were aliquoted and stored at −80° C. until analysis. All analysis and health/death reports were recorded by investigators and animal facility technicians who were blinded to the mouse genotype.\n(§3) Aliskiren water was provided ad libitum throughout life.\nStatistical Analysis: Statistical analyses were performed with GraphPad Prism 7.04 software (GraphPad Software, La Jolla, Calif., USA) using Student's t-test, one-way ANOVA, or two-way ANOVA with Tukey's multiple comparisons test (unless otherwise indicated) and Pearson's correlation. Survival was analyzed using Kaplan-Meier curves with the Mantel-Cox test. Differences were considered significant if p≤0.05. Data are represented as mean±SE."}, "[2]": {"system": "female mice with dilated cardiomyopathy (DCM)", "experiment": "Echocardiography at 90 days in DCM mice", "assay_type": "in vivo, mouse", "conditions": "90 days of age"}, "[3]": {"system": "female mice with dilated cardiomyopathy (DCM)", "experiment": "Morphometric changes (heart and lung weight to body weight) at 90 days", "assay_type": "in vivo, mouse", "conditions": "90 days of age", "excerpt": "as §1"}, "[4]": {"system": "female mice with dilated cardiomyopathy (DCM)", "experiment": "Body composition by quantitative magnetic resonance (QMR, EchoMRI)", "assay_type": "in vivo, mouse", "excerpt": "as §2, §3\nBody Composition: Body composition was objectively quantified by a single-blinded and experienced operator. Bodyweight, free water (systemic extracellular water, ECW), total water, body fat, and lean mass were recorded longitudinally. Mice were measured every tenth day between 50-100 days using quantitative magnetic resonance (QMR) technology with an EchoMRI™ 4-in-1 Analyzer (Echo Medical Systems, Houston, Tex., USA). The machine was calibrated daily per standard operating procedure using the provided canola oil (54.3 g) phantom. Briefly, mice were weighed (Scout Pro SP401, Ohaus Corporation, Pine Brook, N.J., USA) and loaded into a tube restrainer specific to the system. Mice were fully conscious and minimally restrained throughout each 60-90 s recording and were returned to their home enclosure following measurement."}, "[5]": {"conditions": "100 mg/kg/day orally via drinking water, throughout the treatment period", "quoted_text": "Dose calculations were based on an average consumption of 5 mL of water/day/mouse. […] The oral dose was chosen to closely mimic the human route of delivery, while not altering the blood pressure, associated with elevated plasma Ang II-aldosterone levels, given the low bioavailability of the drug in rodents. […] The administration was started at 50 days of age to coincide with the previously identified timeline of increased renin activity and development of stage B HF in female DCM mice]. […] All untreated mice (WT and DCM+vehicle) received ad lib 3 ppm hyperchlorinated facility water via an automated watering system (Edstrom, Waterford, Wis., USA)."}, "[6]": {"conditions": "humans; cited from earlier work"}}, "data": [{"molecule": "COCCCOc1cc(C[C@@H](C[C@H](N)[C@@H](O)C[C@H](C(=O)NCC(C)(C)C(N)=O)C(C)C)C(C)C)ccc1OC", "note": "[aliskiren, aliskiren hemifumarate]", "values": [{"measurement": "plasma renin activity", "setting": "mouse renin", "value": "significantly reduced elevated plasma renin activity to normal levels"}, {"measurement": "plasma aldosterone levels", "setting": "plasma aldosterone", "value": "not modulated by treatment"}, {"measurement": "survival gain expressed as human years", "setting": "[1]; assuming an 80-year lifespan", "value": 5.6, "unit": "human years"}, {"measurement": "median survival", "setting": "[1]; female DCM mice, 100 mg/kg/day from 50 days of age, control 103 days", "value": 110, "unit": "days"}, {"measurement": "increase in survival vs. control DCM mice", "setting": "[1]; female DCM mice, median survival +DRI vs. control", "value": 7, "unit": "%"}, {"measurement": "absolute increase in EF vs. DCM+vehicle", "setting": "[2]", "value": 5, "unit": "%"}, {"measurement": "heart rate", "setting": "[2]; anesthetized, control 419±10", "value": "469±14", "unit": "bpm"}, {"measurement": "cardiac output (CO; mL/min)", "setting": "[2]; vs. DCM control", "value": "improved"}, {"measurement": "ejection fraction (EF %)", "setting": "[2]; vs. DCM control", "value": "improved"}, {"measurement": "fractional shortening (FS %)", "setting": "[2]; vs. DCM control", "value": "improved"}, {"measurement": "reduction of the gross increase in cardiac weight of control (DCM+vehicle) mice", "setting": "[3]", "value": 20.4, "unit": "%"}, {"measurement": "systemic extracellular water (ECW)", "setting": "[4]; 100 days of age, QMR", "value": "significantly higher in DCM+vehicle vs. DCM+DRI mice"}, {"measurement": "combined fat and lean mass (wasting/cachexia)", "setting": "[4]; 100 days, QMR", "value": "combined losses of fat and lean mass in DCM control mice by 100 days relative to WT (p<0.0001) and DCM+DRI mice"}, {"measurement": "lean body mass", "setting": "[4]; 100 days, QMR", "value": "significant decline in lean body mass in DCM control mice at 100 days, consistent with sarcopenia, by comparison to DCM+DRI and WT mice"}, {"measurement": "development of Stage C HF / ECW accumulation (edema)", "setting": "[4]; DCM+DRI vs. DCM+vehicle", "value": "delayed development of Stage C HF"}, {"measurement": "body weights", "setting": "[4]; at 90 days", "value": "not significantly different between groups"}, {"measurement": "body weights", "setting": "[4]; at 100 days", "value": "weights appeared to decline in DCM+vehicle controls compared to WT and DCM+DRI mice"}, {"measurement": "body fat", "setting": "[4]; through 100 days, QMR", "value": "maintenance of fat levels similar to WT through 100 days"}, {"measurement": "side effects or abnormal clinical observations", "setting": "[5]", "value": "no side effects or abnormal clinical observations"}, {"measurement": "bioavailability", "setting": "[6]", "value": "low"}]}]}
